Experimental data from patent publication US20080044419A1, “Treatment of T Cell Mediated Diseases by Inhibition of Fgfr3” (Fibron Ltd., priority 2003, published 2008).

How the values were obtained:
[1] = tested on: cutaneous delayed type hypersensitivity reactions in mice; experiment: Delayed type hypersensitivity (DTH) assay, oxazolone, ear thickness; type: in vivo; conditions: treated mice, oxazolone challenge, measured after 24 hours
Procedure: The mouse model for cutaneous delayed type hypersensitivity reactions was used to investigate the effects of FGFR3 inhibitors on induced skin inflammation. Oxazolone solutions (2% and 0.5%) were prepared by dissolving 200 and 50 mg, respectively, of oxazolone in 8 ml of acetone and 2 ml of olive oil. Mice were challenged with oxazolone by topical application onto the abdomen of each mouse (100 μl of 2% oxazolone) followed by 10 μl of 0.5% oxazolone on the right ear after 6 days. Differences between right and left ear thickness, indicating DTH development, were measured after 24 hours using a microcaliper.

[2] = tested on: Collagen Induced Arthritis (CIA) mice; experiment: Murine Collagen Induced Arthritis (CIA) model, paw edema; type: in vivo; conditions: i.p. daily injections
Procedure: Murine collagen-induced arthritis (CIA) is considered a useful model for studying human RA since the two diseases share numerous pathologic, immunological, and genetic features. The CIA model in mice results in a symmetric polyarthritis in which bone and cartilage erosion typically occur, 2-4 weeks after immunization with […] type II collagen on complete Freud's adjuvant (CFA).
Male DBA/l mice (8-10 weeks old) were subject to an intradermal injection at the base of the tail with 200 μg type II collagen purified from bovine articular cartilage emulsified in CFA. The mice received a booster injection of 200 μg type II collagen emulsified in CFA three weeks after the first dose.
The mice were checked daily and each animal with edema in one or more limbs was randomly assigned to one of several groups for further treatment. The thickness of each affected hind paw was measured with microcalipers. The results are expressed as a direct measure of paw width in millimeters.
Each mouse was injected intraperitoneally on the day following disease onset (day 1) with 100 ug anti-FGFR3-ScFv or anti-FGFR3 Fab′ or 20 mg/kg of a FGFR3 specific tyrosine kinase (TK) inhibitor (SU5402, Calbiochem, La Jolla, Calif.), followed by daily injections with 300 μg anti-FGFR3 ScFv or anti-FGFR3 Fab′ or with 20 mg/kg SU5402.

Cc1c[nH]c(/C=C2\C(=O)Nc3ccccc32)c1CCC(=O)O [SU5402]
DTH reaction: induction of edema (ear thickness difference) [1]: no induction of edema | reduction in paw edema [2]: significant reduction
